Measured values reported in the NIST ThermoML archive (doi:10.1007/s10765-010-0862-1).

What was measured:
[1] = 101.3 kPa, Liquid
[2] = mn = molality of the nth substance listed, in mol/kg; conditions: 101.3 kPa, Liquid

O [water]
[1]
Conditions	speed of sound [m/s]
313.15 K	1528
318.15 K	1535.2

CN(C)C(=N)NC(=N)N.Cl [N,N-dimethylimidodicarbonimidic diamide hydrochloride] + O
[2]
Conditions	mass density, 308.15 K [kg/m3]	mass density, 313.15 K [kg/m3]	mass density, 318.15 K [kg/m3]	speed of sound, 308.15 K [m/s]	speed of sound, 313.15 K [m/s]	speed of sound, 318.15 K [m/s]
m1 = 0.05	997.5	996	994.3	1527.4	1534.4	1539.2
m1 = 0.1	999.1	997.2	995.5	1529	1537.8	1541
m1 = 0.15	1000.2	998.8	997.2	1530	1541.2	1543.8

NCCCC(=O)O [4-aminobutanoic acid] + O
[2]
Conditions	mass density, m1 = 0.02 [kg/m3]	mass density, m1 = 0.04 [kg/m3]	mass density, m1 = 0.06 [kg/m3]	mass density, m1 = 0.08 [kg/m3]	mass density, m1 = 0.1 [kg/m3]	speed of sound, m1 = 0.02 [m/s]	speed of sound, m1 = 0.04 [m/s]	speed of sound, m1 = 0.06 [m/s]	speed of sound, m1 = 0.08 [m/s]	speed of sound, m1 = 0.1 [m/s]
308.15 K	994.6	995.2	995.8	996.4	997	1521.8	1523	1524.3	1525.6	1527
313.15 K	992.8	993.4	994	994.6	995.2	1529.4	1530.7	1532	1533.3	1534.6
318.15 K	990.8	991.4	992	992.6	993.2	1536.5	1537.7	1538.9	1540.1	1541.3
